Experimental data: publication PMC4365270 (Cancer Chemotherapy and Pharmacology, 2015)
Entries after “also recorded” stand apart in the source; their conditions may differ. Read-outs that look alike come from different tables or passages of the source.

Tests used:
[1] = system: tumor necrosis factor α (TNFα); experiment: Plasma TNFα ELISA; design: species or system human; conditions: in vivo
Method: cIAP-1 levels were measured in tumor tissue and surrogate tissue as available. Peripheral blood mononuclear cells (PBMCs) were analyzed for DEBIO1143-induced cIAP-1 degradation. Plasma native cytokeratin-18 ([…]) or caspase-3 generated cytokeratin-18 fragments (M30), interleukin 8 (IL8), chemokine ligand 2 (CCL2, MCP1), and tumor necrosis factor α (TNFα) were measured by ELISA as markers of epithelial cell death and inflammation on days 1 (predose, 1, 3, 6, and 12 h postdose), 2, and 5. […] For the detection of cIAP-1 in paraffin-embedded human tissue, a validated immunohistochemical (IHC) assay was used. DEBIO1143-induced cIAP-1 degradation was measured in PBMCs using Western blot. Plasma biomarkers were measured through commercial ELISAs. All laboratory analyses were performed by MPI Research, Inc. (PK) and Mosaic Laboratory, LLC (PD).

[2] = Plasma pharmacokinetics of DEBIO1143 in patients (LC-MS/MS); assay type: in vivo, human; conditions: for AUC(0-t) / Cmax / Tmax / AUC(0-inf) / half-life: human, plasma
Method: Pharmacokinetic samples were taken from all patients on day 1 (predose, 0.5, 1, 2, 3, 4, 6, 8, 12, 18 h postdose) and on day 5 (predose, 0.5, 1, 2, 3, 4, 6, 8 h postdose) of the first cycle. In addition, for exploratory PD analysis of IAP inhibition and activation of apoptosis, optional skin and tumor biopsies were taken from consenting patients on days 1 (predose) and 5 and blood samples on day 1 (predose, 1, 3, 6, 8, 12 h postdose), day 2 (predose), and day 5 (3 h postdose).
C max and t max were determined by direct assessment of the observed concentration versus time curves. The area under the curve until the last quantifiable concentration (AUC0−t) was estimated by a linear up/log down method if ≥3 values were available and extrapolated to infinity (AUCinf), if the extrapolated part was <30 %. The terminal elimination half-life (T 1/2) was calculated as the ratio of loge^2 to the apparent terminal phase rate constant (λ z), determined through unweighted linear regression analysis on ≥3 log-transformed concentrations on the linear portion of the terminal slope, excluding the peak concentration. In general, points maximizing R ^2 up to at least 0.9 were included for linear regression.
For the detection of cIAP-1 in paraffin-embedded human tissue, a validated immunohistochemical (IHC) assay was used. […] Plasma biomarkers were measured through commercial ELISAs. All laboratory analyses were performed by MPI Research, Inc. (PK) and Mosaic Laboratory, LLC (PD).

[3] = system: multiple mouse cancer models; conditions: cited from earlier work
[4] = oral, 80 mg, day 1, n=3, mean (SD)
[5] = oral, 80 mg, day 5, n=3, mean (SD)
[6] = oral, 120 mg, day 1, n=3, mean (SD)
[7] = oral, 120 mg, day 5, n=3, mean (SD)
[8] = oral, 180 mg, day 1, n=7, mean (SD)
[9] = oral, 180 mg, day 5, n=7, mean (SD)
[10] = oral, 260 mg, day 1, n=3, mean (SD)
[11] = oral, 260 mg, day 5, n=3, mean (SD)
[12] = oral, 400 mg, day 1, n=3, mean (SD)
[13] = oral, 400 mg, day 5, n=3, mean (SD)
[14] = oral, 600 mg, day 1, n=3, mean (SD)
[15] = oral, 600 mg, day 5, n=3, mean (SD)
[16] = oral, 900 mg, day 1, n=6, mean (SD)
[17] = oral, 900 mg, day 5, n=6, mean (SD)

In the case of `CN[C@@H](C)C(=O)N[C@H]1CN(C(=O)CC(C)C)CC[C@H]2CC[C@@H](C(=O)NC(c3ccccc3)c3ccccc3)N2C1=O` [DEBIO1143], the “Patients with detectable TNFα showing some increase postdose” value [1] is reported as “four out of five”, the “Dose proportionality of C max and AUC” value ([2]; doses 80 to 900 mg) is reported as “increased proportionally; also recorded: proportional to doses ≥80 mg” and the “Drug levels versus levels active in animal models” value ([2]; doses of ≥80 mg) is reported as “exceeded levels that have demonstrated activity in animal models”. It also gave an AUC(0-t) ([2]; oral, 5 mg, day 1, n=1) of 19.6 ng·h/mL, a Cmax ([2]; oral, 5 mg, day 1, n=1) of 6.69 ng/mL and a Tmax ([2]; oral, 5 mg, day 1, n=1, read-out: T max) of 3 h. For the same compound, the AUC(0-t) ([2]; oral, 5 mg, day 5, n=1) was 43.4 ng·h/mL, the Cmax ([2]; oral, 5 mg, day 5, n=1) was 18.5 ng/mL and the Tmax ([2]; oral, 5 mg, day 5, n=1, read-out: T max) was 1.6 h. For the same compound, the AUC(0-inf) ([2]; oral, 10 mg, day 1, n=1) was 152 ng·h/mL, the AUC(0-t) ([2]; oral, 10 mg, day 1, n=1) was 129 ng·h/mL and the Cmax ([2]; oral, 10 mg, day 1, n=1) was 37.4 ng/mL. It also gave a half-life ([2]; oral, 10 mg, day 1, n=1, read-out: T 1/2 (converted)) of 2.46 h, a Tmax ([2]; oral, 10 mg, day 1, n=1, read-out: T max) of 1 h and an AUC(0-inf) ([2]; oral, 10 mg, day 5, n=1) of 117 ng·h/mL. The AUC(0-t) ([2]; oral, 10 mg, day 5, n=1) was 103 ng·h/mL, the Cmax ([2]; oral, 10 mg, day 5, n=1) was 26.9 ng/mL and the half-life ([2]; oral, 10 mg, day 5, n=1, read-out: T 1/2 (converted)) was 2.53 h. The Tmax ([2]; oral, 10 mg, day 5, n=1, read-out: T max) was 3.5 h, the AUC(0-inf) ([2]; oral, 20 mg, day 1, n=1) was 643 ng·h/mL and the AUC(0-t) ([2]; oral, 20 mg, day 1, n=1) was 615 ng·h/mL. For the same compound, the Cmax ([2]; oral, 20 mg, day 1, n=1) was 126 ng/mL, the half-life ([2]; oral, 20 mg, day 1, n=1, read-out: T 1/2 (converted)) was 5.44 h and the Tmax ([2]; oral, 20 mg, day 1, n=1, read-out: T max) was 1 h. For the same compound, the AUC(0-inf) ([2]; oral, 20 mg, day 5, n=1) was 451 ng·h/mL, the AUC(0-t) ([2]; oral, 20 mg, day 5, n=1) was 375 ng·h/mL and the Cmax ([2]; oral, 20 mg, day 5, n=1) was 134 ng/mL. It also gave a half-life ([2]; oral, 20 mg, day 5, n=1, read-out: T 1/2 (converted)) of 3.37 h, a Tmax ([2]; oral, 20 mg, day 5, n=1, read-out: T max) of 0.5 h and an AUC(0-inf) ([2]; oral, 40 mg, day 1, n=1) of 2300 ng·h/mL. It also gave an AUC(0-t) ([2]; oral, 40 mg, day 1, n=1) of 2140 ng·h/mL, a Cmax ([2]; oral, 40 mg, day 1, n=1) of 627 ng/mL and a half-life ([2]; oral, 40 mg, day 1, n=1, read-out: T 1/2 (converted)) of 6.38 h. For the same compound, the Tmax ([2]; oral, 40 mg, day 1, n=1, read-out: T max) was 1 h, the AUC(0-t) ([2]; oral, 40 mg, day 5, n=1) was 1090 ng·h/mL and the Cmax ([2]; oral, 40 mg, day 5, n=1) was 184 ng/mL. It also gave a Tmax ([2]; oral, 40 mg, day 5, n=1, read-out: T max) of 6.1 h, an AUC(0-inf) [2, 4] of 6660 ng·h/mL and an AUC(0-t) [2, 4] of 6390 ng·h/mL. The Cmax [2, 4] was 1330 ng/mL, the half-life ([2]; oral, 80 mg, day 1, n=3, mean (SD), read-out: T 1/2 (converted)) was 5.22 h and the Tmax ([2]; oral, 80 mg, day 1, n=3, median (min–max), read-out: T max) was 2 h. It also gave an AUC(0-inf) [2, 5] of 5920 ng·h/mL, an AUC(0-t) [2, 5] of 5020 ng·h/mL and a Cmax [2, 5] of 1670 ng/mL. The half-life ([2]; oral, 80 mg, day 5, n=3, mean (SD), read-out: T 1/2 (converted)) was 2.69 h, the Tmax ([2]; oral, 80 mg, day 5, n=3, median (min–max), read-out: T max) was 2 h and the AUC(0-inf) [2, 6] was 7460 ng·h/mL. It also gave an AUC(0-t) [2, 6] of 6890 ng·h/mL, a Cmax [2, 6] of 1650 ng/mL and a half-life ([2]; oral, 120 mg, day 1, n=3, mean (SD), read-out: T 1/2 (converted)) of 6.39 h. For the same compound, the Tmax ([2]; oral, 120 mg, day 1, n=3, median (min–max), read-out: T max) was 1 h, the AUC(0-inf) [2, 7] was 6770 ng·h/mL and the AUC(0-t) [2, 7] was 5430 ng·h/mL. The Cmax [2, 7] was 1190 ng/mL, the half-life ([2]; oral, 120 mg, day 5, n=3, mean (SD), read-out: T 1/2 (converted)) was 2.61 h and the Tmax ([2]; oral, 120 mg, day 5, n=3, median (min–max), read-out: T max) was 2 h. For the same compound, the AUC(0-inf) [2, 8] was 11400 ng·h/mL, the AUC(0-t) [2, 8] was 10600 ng·h/mL and the Cmax [2, 8] was 2130 ng/mL. For the same compound, the half-life ([2]; oral, 180 mg, day 1, n=7, mean (SD), read-out: T 1/2 (converted)) was 6.06 h, the Tmax ([2]; oral, 180 mg, day 1, n=7, median (min–max), read-out: T max) was 2 h and the AUC(0-inf) [2, 9] was 9980 ng·h/mL. The AUC(0-t) [2, 9] was 7210 ng·h/mL, the Cmax [2, 9] was 2160 ng/mL and the half-life ([2]; oral, 180 mg, day 5, n=7, mean (SD), read-out: T 1/2 (converted)) was 4.14 h. The Tmax ([2]; oral, 180 mg, day 5, n=7, median (min–max), read-out: T max) was 2 h, the AUC(0-inf) [2, 10] was 17900 ng·h/mL and the AUC(0-t) [2, 10] was 16300 ng·h/mL. The Cmax [2, 10] was 2890 ng/mL, the half-life ([2]; oral, 260 mg, day 1, n=3, mean (SD), read-out: T 1/2 (converted)) was 6.59 h and the Tmax ([2]; oral, 260 mg, day 1, n=3, median (min–max), read-out: T max) was 3 h. It also gave an AUC(0-inf) [2, 11] of 11700 ng·h/mL, an AUC(0-t) [2, 11] of 10600 ng·h/mL and a Cmax [2, 11] of 2760 ng/mL. It also gave a half-life ([2]; oral, 260 mg, day 5, n=3, mean (SD), read-out: T 1/2 (converted)) of 3.29 h, a Tmax ([2]; oral, 260 mg, day 5, n=3, median (min–max), read-out: T max) of 2 h and an AUC(0-inf) [2, 12] of 27000 ng·h/mL. For the same compound, the AUC(0-t) [2, 12] was 25000 ng·h/mL, the Cmax [2, 12] was 5280 ng/mL and the half-life ([2]; oral, 400 mg, day 1, n=3, mean (SD), read-out: T 1/2 (converted)) was 6.27 h. It also gave a Tmax ([2]; oral, 400 mg, day 1, n=3, median (min–max), read-out: T max) of 1 h, an AUC(0-inf) [2, 13] of 26500 ng·h/mL and an AUC(0-t) [2, 13] of 20100 ng·h/mL. The Cmax [2, 13] was 5540 ng/mL, the half-life ([2]; oral, 400 mg, day 5, n=3, mean (SD), read-out: T 1/2 (converted)) was 3.7 h and the Tmax ([2]; oral, 400 mg, day 5, n=3, median (min–max), read-out: T max) was 0.5 h. It also gave an AUC(0-inf) [2, 14] of 28700 ng·h/mL, an AUC(0-t) [2, 14] of 27000 ng·h/mL and a Cmax [2, 14] of 5780 ng/mL. For the same compound, the half-life ([2]; oral, 600 mg, day 1, n=3, mean (SD), read-out: T 1/2 (converted)) was 5.75 h, the Tmax ([2]; oral, 600 mg, day 1, n=3, median (min–max), read-out: T max) was 1.1 h and the AUC(0-inf) [2, 15] was 25000 ng·h/mL. For the same compound, the AUC(0-t) [2, 15] was 20200 ng·h/mL, the Cmax [2, 15] was 7110 ng/mL and the half-life ([2]; oral, 600 mg, day 5, n=3, mean (SD), read-out: T 1/2 (converted)) was 3.54 h. It also gave a Tmax ([2]; oral, 600 mg, day 5, n=3, median (min–max), read-out: T max) of 1 h, an AUC(0-inf) [2, 16] of 61500 ng·h/mL and an AUC(0-t) [2, 16] of 56100 ng·h/mL. For the same compound, the Cmax [2, 16] was 10100 ng/mL, the half-life ([2]; oral, 900 mg, day 1, n=6, mean (SD), read-out: T 1/2 (converted)) was 7.11 h and the Tmax ([2]; oral, 900 mg, day 1, n=6, median (min–max), read-out: T max) was 1.5 h. It also gave an AUC(0-inf) [2, 17] of 47000 ng·h/mL, an AUC(0-t) [2, 17] of 36900 ng·h/mL and a Cmax [2, 17] of 10300 ng/mL. It also gave a half-life ([2]; oral, 900 mg, day 5, n=6, mean (SD), read-out: T 1/2 (converted)) of 3.15 h, a Tmax ([2]; oral, 900 mg, day 5, n=6, median (min–max), read-out: T max) of 1.5 h and a half-life ([2]; oral, all doses, read-out: Average T 1/2 (converted)) of ~6 h. It also gave a Tmax ([2]; oral, all doses, read-out: Average t max) of ~1 h, a half-life ([2]; oral, day 1, regardless of the dose, read-out: Mean T 1/2, range across doses) of 5.2 to 7.1 h and a Tmax ([2]; po, after oral intake, read-out: Time to peak plasma concentrations) of 1 to 3 h. For the same compound, the “Effect on irradiation or chemotherapeutic agents” value [3] was “enhance the antitumoral effects”.
